# Measured values from US11590129B2, “Combination therapy with an antitumor alkaloid” (PHARMA MAR, S.A., priority 2010, dated 2023).
# Columns and labels:
# [1] = system: HGC-27 human gastric carcinoma cell line; assay: cells; conditions: Homo sapiens, HGC-27, 72 h
# [2] = system: JURKAT human leukemia cell line; assay: cells; conditions: Homo sapiens, Jurkat, 72 h
# Protocol: (§1) Additional serial dilutions were prepared in serum-free culture medium to achieve a final 4× concentration. Aliquots of 50 μL of each diluted compound were added per well.
# (§2) JURKAT and MOLT-4 were the human leukemia cell lines selected for this assay, which were obtained from the American Type Culture Collection (ATCC).
# (§3) Briefly, cells were seeded in 96 well microtiter plates at a density of 50000 cells per well in 150 μL of culture medium and incubated for 4-6 hours in drug-free medium before treatment with vehicle alone or test compounds for 72 hours.
# (§4) After incubation, the cytotoxic effect was evaluated using a MTT reduction assay. 50 μL of MTT solution (1 mg/mL) were added to the wells and incubated for 15-17 hours at 37° C. until formazan crystals were formed. After gently removing the culture medium, DMSO was added to dissolve the insoluble purple formazan product into a colored solution. […] Results were expressed as percentage of control cell growth. The EC50 values (half-maximal effective concentration) used for the combination studies were calculated using Prism v5.02 software (GraphPad). EC50 was expressed as molar concentration and represented the mean of at least three independent assays.
# (§5) b. In a second set of experiments, concentration-response curves for the agents tested, both alone and in two-drug combination, were performed, using the same methodology described in the previous paragraph.
# (§6) Using these starting concentrations, constant serial dilutions were performed to generate the concentration-response curves for each set of drugs, alone and in combination.
# (§7) Based on this equation, the term “combination index” (CI) is used as a quantitative measure of the degree of drug interactions. […] CI values were calculated by solving the equation for different values of fa (i.e., for different degrees of cell groth inhibition).
# (§8) Data were analyzed using CalcuSyn software (Biosoft, Cambridge, UK). For statistical analysis and graphs Prism software (GraphPad, San Diego, USA) was used. All the results represent the mean of at least three independent experiments.
# [3] = system: MOLT-4 human leukemia cell line; assay: cells; conditions: Homo sapiens, MOLT-4, 72 h
# Protocol: as §1, §2, §3, §4, §5, §6, §7, §8
# [4] = system: PANC-1 human pancreatic carcinoma cell line; assay: cells; conditions: Homo sapiens, PANC-1, 72 h
# In short: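 Cells seeded at 5,000/well, left 24 h drug-free, then exposed to test compounds for 72 h. Viability read by MTT reduction (MTT added for 8 h at 37° C, formazan dissolved in DMSO).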
# [5] = system: HT-29 tumors; assay: Human colorectal tumor xenografts (HT-29) in athymic nude mice, tumor volume % T/C
# [6] = system: U87-MG human glioblastoma cell line; assay: cells; conditions: Homo sapiens, U-87 MG, 72 h
# [7] = system: U-937 human lymphoma cell line; assay: cells; conditions: Homo sapiens, U-937, 72 h
# Protocol: as §3, §4, §6, §7, §8, §1
# (§9) In the second set of assays, concentration-response curves for the agents tested, both alone and in two-drug combination, were performed.
# [8] = system: RAMOS human lymphoma cell line; assay: cells; conditions: Homo sapiens, Ramos, 72 h
# Protocol: as §3, §4, §6, §7, §8, §1, §9
# [9] = system: HepG2 human hepatocellular liver carcinoma cell line; assay: MTT cytotoxicity assay in HepG2 cells: IC50 of single agents and combinations with PM01183; assay type: cell-based; conditions: Homo sapiens, HepG2, 72 h
compound,measurement,setting,value
COc1ccc2[nH]c3c(c2c1)CCN[C@]31CS[C@@H]2c3c(OC(C)=O)c(C)c4c(c3[C@H](COC1=O)N1[C@@H]2[C@H]2c3c(cc(C)c(OC)c3O)C[C@@H]([C@@H]1O)N2C)OCO4 [PM01183],IC50,[1],0.85 nM
same,EC50,[2],1.55 nM
same,EC50,[3],0.857 nM
same,IC50,[4],2.8 nM
same,% T/C on day 0,[5]; PM01183 0.045 mg/kg,99.8%
same,% T/C on day 3,[5]; PM01183 0.045 mg/kg,103.7%
same,% T/C on day 5,[5]; PM01183 0.045 mg/kg,100.6%
same,% T/C on day 7,[5]; PM01183 0.045 mg/kg,111.1%
same,% T/C on day 10,[5]; PM01183 0.045 mg/kg,135.8%
same,% T/C on day 12,[5]; PM01183 0.045 mg/kg,125.1%
same,% T/C on day 14,[5]; PM01183 0.045 mg/kg,109.3%
same,% T/C on day 0,[5]; PM01183 0.09 mg/kg,98.4%
same,% T/C on day 3,[5]; PM01183 0.09 mg/kg,100.9%
same,% T/C on day 5,[5]; PM01183 0.09 mg/kg,88.7%
same,% T/C on day 7,[5]; PM01183 0.09 mg/kg,121.9%
same,% T/C on day 10,[5]; PM01183 0.09 mg/kg,129.8%
same,% T/C on day 12,[5]; PM01183 0.09 mg/kg,114.1%
same,% T/C on day 14,[5]; PM01183 0.09 mg/kg,109.4%
same,% T/C on day 17,[5]; PM01183 0.09 mg/kg,116.1%
same,% T/C on day 20,[5]; PM01183 0.09 mg/kg,93.4%
same,% T/C on day 0,[5]; PM01183 0.135 mg/kg,98.4%
same,% T/C on day 3,[5]; PM01183 0.135 mg/kg,106.4%
same,% T/C on day 5,[5]; PM01183 0.135 mg/kg,95.3%
same,% T/C on day 7,[5]; PM01183 0.135 mg/kg,116.6%
same,% T/C on day 10,[5]; PM01183 0.135 mg/kg,115.2%
same,% T/C on day 12,[5]; PM01183 0.135 mg/kg,119.1%
same,% T/C on day 14,[5]; PM01183 0.135 mg/kg,121.5%
same,% T/C on day 17,[5]; PM01183 0.135 mg/kg,133.1%
same,% T/C on day 20,[5]; PM01183 0.135 mg/kg,105.2%
same,% T/C on day 0,[5]; PM01183 0.18 mg/kg,100.4%
same,% T/C on day 3,[5]; PM01183 0.18 mg/kg,108.4%
same,% T/C on day 5,[5]; PM01183 0.18 mg/kg,86.5%
same,% T/C on day 7,[5]; PM01183 0.18 mg/kg,101.1%
same,% T/C on day 10,[5]; PM01183 0.18 mg/kg,116.5%
same,% T/C on day 12,[5]; PM01183 0.18 mg/kg,115.4%
same,% T/C on day 14,[5]; PM01183 0.18 mg/kg,123.4%
same,% T/C on day 17,[5]; PM01183 0.18 mg/kg,86.7%
same,% T/C on day 20,[5]; PM01183 0.18 mg/kg,77.5%
same,IC50,[6],4.5 nM
same,EC50,[7],1.03 nM
same,EC50,[8],1.39 nM
same,IC50,[9],2.5 nM
